Among the data in the supplement of paper PMC10307832 are relative viability values, retold here.

Experiment in all cases: relative viability (nuclei count vs DMSO), 5 days (fraction); higher = more cells survive
Compound in the assay “Pictilisib + Bortezomib”: CS(=O)(=O)N1CCN(Cc2cc3nc(-c4cccc5[nH]ncc45)nc(N4CCOCC4)c3s2)CC1 [Pictilisib] + CC(C)C[C@H](NC(=O)[C@H](Cc1ccccc1)NC(=O)c1cnccn1)B(O)O [Bortezomib] (partner 0.002 µM)
The method in brief:
(§1)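 Lung cancer cell lines in 1536-well plates were dosed by pin tool the day after seeding, either with one drug alone or with a fixed anchor-drug dose plus five library-drug doses (not always all listed) in √10 steps. After 5 days, cells were fixed and their nuclei stained in one step (final 0.05% Triton X-100, 1% formaldehyde, 1 ug/ml Hoechst), then counted on 4× images. Relative viability is the nuclei count in treated wells divided by that in vehicle wells. Values are medians of duplicate plates.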

Compound in the assay “MK-2206 + Trametinib”: NC1(c2ccc(-c3nc4ccn5c(=O)[nH]nc5c4cc3-c3ccccc3)cc2)CCC1 [MK-2206] + CC(=O)Nc1cccc(-n2c(=O)n(C3CC3)c(=O)c3c(Nc4ccc(I)cc4F)n(C)c(=O)c(C)c32)c1 [Trametinib] (partner 0.02 µM)
The essentials:
as §1

Compound in the assay “Pictilisib + Dasatinib”: CS(=O)(=O)N1CCN(Cc2cc3nc(-c4cccc5[nH]ncc45)nc(N4CCOCC4)c3s2)CC1 [Pictilisib] + Cc1nc(Nc2ncc(C(=O)Nc3c(C)cccc3Cl)s2)cc(N2CCN(CCO)CC2)n1 [Dasatinib] (partner 0.075 µM)
The essentials: as §1

Compound in the assay “MK-2206 + Pemetrexed”: NC1(c2ccc(-c3nc4ccn5c(=O)[nH]nc5c4cc3-c3ccccc3)cc2)CCC1 [MK-2206] + Nc1nc2[nH]cc(CCc3ccc(C(=O)N[C@@H](CCC(=O)O)C(=O)O)cc3)c2c(=O)[nH]1 [Pemetrexed] (partner 0.2 µM)
The essentials:
as §1

Compound in the assay “MK-2206 + Alpelisib”: NC1(c2ccc(-c3nc4ccn5c(=O)[nH]nc5c4cc3-c3ccccc3)cc2)CCC1 [MK-2206] + Cc1nc(NC(=O)N2CCC[C@H]2C(N)=O)sc1-c1ccnc(C(C)(C)C(F)(F)F)c1 [Alpelisib] (partner 2 µM)
The method in brief:
as §1

In the case of UMC-11, the relative viability with Pictilisib + Bortezomib (first compound 0.02 µM) came out at 0.828; in the assay with Pictilisib + Bortezomib (first compound 0.06325 µM) it was 0.902; with Pictilisib + Bortezomib (first compound 0.6325 µM), 0.78; with Pictilisib + Bortezomib (first compound 2 µM) it was 0.768; with MK-2206 + Trametinib (first compound 0.01 µM), 0.594; in the assay with MK-2206 + Trametinib (first compound 0.03162 µM), 0.717. Moreover, the relative viability was 0.772 with MK-2206 + Trametinib (first compound 0.3162 µM); 0.966 with MK-2206 + Trametinib (first compound 1 µM); 0.449 with Pictilisib + Dasatinib (first compound 0.02 µM); 0.461 with Pictilisib + Dasatinib (first compound 0.06325 µM); 0.458 in the assay with Pictilisib + Dasatinib (first compound 0.6325 µM); 0.515 in the assay with Pictilisib + Dasatinib (first compound 2 µM). For the same cell line, the relative viability in the assay with MK-2206 + Pemetrexed (first compound 0.01 µM) was 0.862; in the assay with MK-2206 + Pemetrexed (first compound 0.03162 µM), 0.763; with MK-2206 + Pemetrexed (first compound 0.3162 µM), 0.836; in the assay with MK-2206 + Pemetrexed (first compound 1 µM) it was 0.791; with MK-2206 + Alpelisib (first compound 0.01 µM), 1.03; with MK-2206 + Alpelisib (first compound 0.03162 µM), 0.908. In addition, the relative viability is 1.1 with MK-2206 + Alpelisib (first compound 0.3162 µM) and 0.994 with MK-2206 + Alpelisib (first compound 1 µM).
